Experimental data published in PubChem BioAssay (NCI).
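A five-concentration, 48-hour dose response in 96-well plates underlies each endpoint, interpolated linearly between surrounding concentrations. TGI: total growth inhibition.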

Key:
Experiment in all cases: growth of human tumour cells (NCI), 48 h
SR leukemia = system: SR leukemia
HCT-116 colon = system: HCT-116 colon
SF-539 CNS = system: SF-539 CNS
HL-60(TB) leukemia = system: HL-60(TB) leukemia
NCI-H226 lung = system: NCI-H226 lung
PC-3 prostate = system: PC-3 prostate
SK-OV-3 ovarian = system: SK-OV-3 ovarian
A549 NSCLC = system: A549 NSCLC
HOP-62 NSCLC = system: HOP-62 NSCLC
MCF7 breast = system: MCF7 breast
RPMI-8226 leukemia = system: RPMI-8226 leukemia
SN12C renal = system: SN12C renal
K-562 leukemia = system: K-562 leukemia
NCI-H460 lung = system: NCI-H460 lung
UACC-257 melanoma = system: UACC-257 melanoma
MALME-3M melanoma = system: MALME-3M melanoma
SF-268 CNS = system: SF-268 CNS
MDA-N = system: MDA-N
HCT-15 colon = system: HCT-15 colon
EKVX NSCLC = system: EKVX NSCLC
T-47D breast = system: T-47D breast
SW-620 colon = system: SW-620 colon
KM12 colon = system: KM12 colon
A498 renal = system: A498 renal
COLO 205 colon = system: COLO 205 colon
UACC-62 melanoma = system: UACC-62 melanoma
RXF 393 renal = system: RXF 393 renal
786-0 renal = system: 786-0 renal
HOP-92 NSCLC = system: HOP-92 NSCLC
IGROV1 ovarian = system: IGROV1 ovarian
DU-145 prostate = system: DU-145 prostate
SK-MEL-5 melanoma = system: SK-MEL-5 melanoma
MDA-MB-231 breast = system: MDA-MB-231 breast
HCC-2998 colon = system: HCC-2998 colon
OVCAR-5 ovarian = system: OVCAR-5 ovarian
HS 578T breast = system: HS 578T breast
MOLT-4 leukemia = system: MOLT-4 leukemia
UO-31 renal = system: UO-31 renal
OVCAR-4 ovarian = system: OVCAR-4 ovarian
U251 CNS = system: U251 CNS
TK-10 renal = system: TK-10 renal
ACHN renal = system: ACHN renal
HT29 colon = system: HT29 colon
MDA-MB-435 = system: MDA-MB-435
SK-MEL-28 melanoma = system: SK-MEL-28 melanoma
OVCAR-8 ovarian = system: OVCAR-8 ovarian
M14 melanoma = system: M14 melanoma
SF-295 CNS = system: SF-295 CNS
OVCAR-3 ovarian = system: OVCAR-3 ovarian
NCI-H522 lung = system: NCI-H522 lung
SNB-19 CNS = system: SNB-19 CNS
NCI/ADR-RES ovarian = system: NCI/ADR-RES ovarian
SK-MEL-2 melanoma = system: SK-MEL-2 melanoma
LOX IMVI melanoma = system: LOX IMVI melanoma
NCI-H23 lung = system: NCI-H23 lung
BT-549 breast = system: BT-549 breast
CCRF-CEM leukemia = system: CCRF-CEM leukemia
CAKI-1 renal = system: CAKI-1 renal
SNB-75 CNS = system: SNB-75 CNS

In the case of `CC(=O)OC1C2CCC3CC2C2(SCCS2)C31` (stereo unspecified), the TGI (SR leukemia) is reported as > 100000 nM, the TGI (HCT-116 colon) is reported as > 100000 nM and the TGI (SF-539 CNS) is reported as > 100000 nM. The TGI (HL-60(TB) leukemia) was > 100000 nM, the TGI (NCI-H226 lung) was > 100000 nM and the TGI (PC-3 prostate) was > 100000 nM. For the same compound, the TGI (SK-OV-3 ovarian) was > 100000 nM, the TGI (A549 NSCLC) was > 100000 nM and the TGI (HOP-62 NSCLC) was > 100000 nM. For the same compound, the TGI (MCF7 breast) was > 100000 nM, the TGI (RPMI-8226 leukemia) was > 100000 nM and the TGI (SN12C renal) was > 100000 nM. The TGI (K-562 leukemia) was > 100000 nM, the TGI (NCI-H460 lung) was > 100000 nM and the TGI (UACC-257 melanoma) was > 100000 nM. For the same compound, the TGI (MALME-3M melanoma) was > 100000 nM, the TGI (SF-268 CNS) was > 100000 nM and the TGI (MDA-N) was > 100000 nM. The TGI (HCT-15 colon) was > 100000 nM, the TGI (EKVX NSCLC) was > 100000 nM and the TGI (T-47D breast) was > 100000 nM. The TGI (SW-620 colon) was > 100000 nM, the TGI (KM12 colon) was > 100000 nM and the TGI (A498 renal) was > 100000 nM. For the same compound, the TGI (COLO 205 colon) was > 100000 nM, the TGI (UACC-62 melanoma) was > 100000 nM and the TGI (RXF 393 renal) was > 100000 nM. For the same compound, the TGI (786-0 renal) was > 100000 nM, the TGI (HOP-92 NSCLC) was > 100000 nM and the TGI (IGROV1 ovarian) was > 100000 nM. The TGI (DU-145 prostate) was > 100000 nM, the TGI (SK-MEL-5 melanoma) was > 100000 nM and the TGI (MDA-MB-231 breast) was > 100000 nM. The TGI (HCC-2998 colon) was > 100000 nM, the TGI (OVCAR-5 ovarian) was > 100000 nM and the TGI (HS 578T breast) was > 100000 nM. For the same compound, the TGI (MOLT-4 leukemia) was > 100000 nM, the TGI (UO-31 renal) was > 100000 nM and the TGI (OVCAR-4 ovarian) was > 100000 nM. The TGI (U251 CNS) was > 100000 nM, the TGI (TK-10 renal) was > 100000 nM and the TGI (ACHN renal) was > 100000 nM. The TGI (HT29 colon) was > 100000 nM, the TGI (MDA-MB-435) was > 100000 nM and the TGI (SK-MEL-28 melanoma) was > 100000 nM. The TGI (OVCAR-8 ovarian) was > 100000 nM, the TGI (M14 melanoma) was > 100000 nM and the TGI (SF-295 CNS) was > 100000 nM. The TGI (OVCAR-3 ovarian) was > 100000 nM, the TGI (NCI-H522 lung) was > 100000 nM and the TGI (SNB-19 CNS) was > 100000 nM. The TGI (NCI/ADR-RES ovarian) was > 100000 nM, the TGI (SK-MEL-2 melanoma) was > 100000 nM and the TGI (LOX IMVI melanoma) was > 100000 nM. For the same compound, the TGI (NCI-H23 lung) was > 100000 nM.

Work on `C=C1C(=O)O[C@@H]2C[C@@H](C)[C@@H]3C=CC(=O)[C@@]3(C)[C@@H](OC(=O)CCCC(=O)O[C@H]3[C@@H]4C(=C)C(=O)O[C@@H]4C[C@@H](C)[C@@H]4C=CC(=O)[C@]43C)[C@H]12` yielded a TGI (BT-549 breast) of 70 nM, a TGI (HCT-116 colon) of 30 nM and a TGI (SF-539 CNS) of 185 nM. It also gave a TGI (NCI-H226 lung) of 1350 nM, a TGI (PC-3 prostate) of 299 nM and a TGI (SK-OV-3 ovarian) of 3800 nM. The TGI (CCRF-CEM leukemia) was 1450 nM, the TGI (A549 NSCLC) was 6090 nM and the TGI (HOP-62 NSCLC) was 2610 nM. It also gave a TGI (MCF7 breast) of 805 nM, a TGI (SN12C renal) of 93.8 nM and a TGI (K-562 leukemia) of 36.3 nM. It also gave a TGI (NCI-H460 lung) of 955 nM, a TGI (UACC-257 melanoma) of 271 nM and a TGI (MALME-3M melanoma) of 37.3 nM. For the same compound, the TGI (SF-268 CNS) was 230 nM, the TGI (MDA-N) was 43.1 nM and the TGI (HCT-15 colon) was 112 nM. The TGI (EKVX NSCLC) was 264 nM, the TGI (T-47D breast) was 66.6 nM and the TGI (SW-620 colon) was 43.2 nM. For the same compound, the TGI (KM12 colon) was 662 nM, the TGI (CAKI-1 renal) was 187 nM and the TGI (A498 renal) was 546 nM. It also gave a TGI (COLO 205 colon) of 111 nM, a TGI (UACC-62 melanoma) of 103 nM and a TGI (RXF 393 renal) of 47 nM. For the same compound, the TGI (786-0 renal) was 44.8 nM, the TGI (HOP-92 NSCLC) was 104 nM and the TGI (IGROV1 ovarian) was 313 nM. For the same compound, the TGI (DU-145 prostate) was 957 nM, the TGI (SK-MEL-5 melanoma) was 293 nM and the TGI (MDA-MB-231 breast) was 79 nM. For the same compound, the TGI (HCC-2998 colon) was 1270 nM, the TGI (OVCAR-5 ovarian) was 387 nM and the TGI (HS 578T breast) was 433 nM. The TGI (MOLT-4 leukemia) was 63.4 nM, the TGI (UO-31 renal) was 289 nM and the TGI (OVCAR-4 ovarian) was 262 nM. The TGI (U251 CNS) was 377 nM, the TGI (TK-10 renal) was 296 nM and the TGI (ACHN renal) was 110 nM. The TGI (HT29 colon) was 152 nM, the TGI (MDA-MB-435) was 32.9 nM and the TGI (SK-MEL-28 melanoma) was 136 nM. For the same compound, the TGI (OVCAR-8 ovarian) was 29.5 nM, the TGI (SNB-75 CNS) was 482 nM and the TGI (M14 melanoma) was 58.4 nM. For the same compound, the TGI (SF-295 CNS) was 3130 nM, the TGI (OVCAR-3 ovarian) was 275 nM and the TGI (NCI-H522 lung) was 25.3 nM. It also gave a TGI (SNB-19 CNS) of 2560 nM, a TGI (NCI/ADR-RES ovarian) of 4120 nM and a TGI (SK-MEL-2 melanoma) of 340 nM. It also gave a TGI (LOX IMVI melanoma) of 152 nM and a TGI (NCI-H23 lung) of 275 nM.
